Here are results for four compounds from BindingDB's records for doi:10.1021/acschembio.6b00720 (University of Michigan, 2016).

For assay [1], the target named is Acyl-protein thioesterase 2 [S122A] (Homo sapiens, UniProt O95372, S122A). In words: Fluorescence Binding Assays. The note with it: 25 °C.
The target in assay [2] is T1, Acyl-protein thioesterase 2 (Homo sapiens, UniProt O95372). The assay can be described thus: Fluorescence Binding Assays. The note with it: 25 °C.
The target in assay [3] is Acyl-protein thioesterase 2 [P86Q] (Homo sapiens, UniProt O95372, P86Q). The assay can be described thus: Steady-State Kinetic Assays. To be noted: pH 6.5. How it is done:
(§1) Enzymes were diluted to 10 nM in PBS pH 6.5 (adjusted with sodium acetate) supplemented with 0.1 g/L pluronic F127 (Sigma). Varying concentrations of resorufin acetate (Sigma) in DMSO were added as 5 μL aliquots to clear-bottom 96-well plates (Greiner bio-one). Using a multi-channel pipette, 95 μL of enzyme was added to each well and quickly mixed by pipetting up and down several times. Each enzyme was assayed in 2 separate runs, each with 4 replicates per substrate concentration and 4 replicates of catalytic-dead enzyme.

For assay [4], the target named is Acyl-protein thioesterase 2 [L78I,A85S,P86Q,H152R,R153A,A154S] (Homo sapiens, UniProt O95372, A154S/A85S/H152R/L78I/P86Q/R153A). In words: Steady-State Kinetic Assays. To be noted: pH 6.5. How it is done: as §1
Assay [5] concerns the target Acyl-protein thioesterase 2 [L78I] (Homo sapiens, UniProt O95372, L78I). In words: Steady-State Kinetic Assays. The note with it: pH 6.5. How it is done:
as §1

For assay [6], the target named is Acyl-protein thioesterase 2 [L78I,A85S] (Homo sapiens, UniProt O95372, A85S/L78I). The assay can be described thus: Steady-State Kinetic Assays. To be noted: pH 6.5. How it is done: as §1
In assay [7] the target is Acyl-protein thioesterase 2 [M178L] (Homo sapiens, UniProt O95372, M178L). In words: Steady-State Kinetic Assays. To be noted: pH 6.5. How it is done: as §1
The target in assay [8] is T1, Acyl-protein thioesterase 2. In words: Steady-State Kinetic Assays. To be noted: pH 6.5. How it is done:
as §1

In assay [9] the target is Acyl-protein thioesterase 2 [H152R] (Homo sapiens, UniProt O95372, H152R). In words: Steady-State Kinetic Assays. The note with it: pH 6.5. How it is done: as §1
In assay [10] the target is Acyl-protein thioesterase 2 [L78I,A85S,P86Q] (Homo sapiens, UniProt O95372, A85S/L78I/P86Q). In words: Steady-State Kinetic Assays. The note with it: pH 6.5. How it is done:
as §1

The target in assay [11] is Acyl-protein thioesterase 1 [Q83P] (Homo sapiens, UniProt O75608, Q83P). In words: Steady-State Kinetic Assays. To be noted: pH 6.5. How it is done:
as §1

In assay [12] the target is Acyl-protein thioesterase 1 (Homo sapiens, UniProt O75608). The assay can be described thus: Steady-State Kinetic Assays. The note with it: pH 6.5. How it is done: as §1
In assay [13] the target is Acyl-protein thioesterase 1 [I75L,S82A,Q83P] (Homo sapiens, UniProt O75608, I75L/Q83P/S82A). The assay can be described thus: Steady-State Kinetic Assays. To be noted: pH 6.5. How it is done: as §1
Assay [14] deals with Acyl-protein thioesterase 1 [L176M] (Homo sapiens, UniProt O75608, L176M). In words: Steady-State Kinetic Assays. The note with it: pH 6.5. How it is done:
as §1

The target in assay [15] is Acyl-protein thioesterase 1 [I75L] (Homo sapiens, UniProt O75608, I75L). The assay can be described thus: Steady-State Kinetic Assays. The note with it: pH 6.5. How it is done:
as §1

For assay [16], the target named is Acyl-protein thioesterase 1 [I75L,S82A,Q83P,R149H,A150R,S151A] (Homo sapiens, UniProt O75608, A150R/I75L/Q83P/R149H/S151A/S82A). In words: Steady-State Kinetic Assays. The note with it: pH 6.5. How it is done:
as §1

Assay [17] concerns the target Acyl-protein thioesterase 1 [I75L,S82A] (Homo sapiens, UniProt O75608, I75L/S82A). The assay can be described thus: Steady-State Kinetic Assays. The note with it: pH 6.5. How it is done: as §1

Some results are limits rather than exact numbers.

Acyl-protein thioesterase 2 [S122A], sequence (O95372 whole entry S122A): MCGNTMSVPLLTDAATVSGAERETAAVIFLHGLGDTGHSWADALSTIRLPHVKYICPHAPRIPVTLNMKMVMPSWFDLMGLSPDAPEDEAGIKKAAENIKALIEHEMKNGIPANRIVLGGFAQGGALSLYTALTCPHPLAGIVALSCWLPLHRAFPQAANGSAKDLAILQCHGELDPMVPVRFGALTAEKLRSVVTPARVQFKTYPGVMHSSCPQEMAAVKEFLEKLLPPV
T1 sequence (O95372 whole entry): as the sequence (O95372 whole entry S122A) above, with A122S counted along it
Acyl-protein thioesterase 2 [L78I], sequence (O95372 whole entry L78I): as the sequence (O95372 whole entry S122A) above, with L78I, A122S counted along it
Acyl-protein thioesterase 2 [H152R], sequence (O95372 whole entry H152R): as the sequence (O95372 whole entry S122A) above, with A122S, H152R counted along it
Acyl-protein thioesterase 2 [L78I,A85S,P86Q,H152R,R153A,A154S], sequence (O95372 whole entry L78I/A85S/P86Q/H152R/R153A/A154S): as the sequence (O95372 whole entry S122A) above, with L78I, A85S, P86Q, A122S, H152R, R153A, A154S counted along it
Acyl-protein thioesterase 2 [P86Q], sequence (O95372 whole entry P86Q): as the sequence (O95372 whole entry S122A) above, with P86Q, A122S counted along it
Acyl-protein thioesterase 2 [M178L], sequence (O95372 whole entry M178L): as the sequence (O95372 whole entry S122A) above, with A122S, M178L counted along it
Acyl-protein thioesterase 2 [L78I,A85S], sequence (O95372 whole entry L78I/A85S): as the sequence (O95372 whole entry S122A) above, with L78I, A85S, A122S counted along it
Acyl-protein thioesterase 2 [L78I,A85S,P86Q], sequence (O95372 whole entry L78I/A85S/P86Q): as the sequence (O95372 whole entry S122A) above, with L78I, A85S, P86Q, A122S counted along it
Acyl-protein thioesterase 1 [I75L,S82A], sequence (O75608 whole entry I75L/S82A): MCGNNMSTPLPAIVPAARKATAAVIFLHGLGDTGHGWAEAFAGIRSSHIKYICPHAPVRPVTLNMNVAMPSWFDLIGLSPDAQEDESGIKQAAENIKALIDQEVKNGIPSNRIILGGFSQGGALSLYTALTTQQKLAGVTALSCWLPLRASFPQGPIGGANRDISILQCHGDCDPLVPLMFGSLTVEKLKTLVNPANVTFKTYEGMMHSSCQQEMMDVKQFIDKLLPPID
Acyl-protein thioesterase 1 [I75L,S82A,Q83P], sequence (O75608 whole entry I75L/S82A/Q83P): as the sequence (O75608 whole entry I75L/S82A) above, with Q83P counted along it
Acyl-protein thioesterase 1 [Q83P], sequence (O75608 whole entry Q83P): as the sequence (O75608 whole entry I75L/S82A) above, with L75I, A82S, Q83P counted along it
Acyl-protein thioesterase 1 [I75L,S82A,Q83P,R149H,A150R,S151A], sequence (O75608 whole entry I75L/S82A/Q83P/R149H/A150R/S151A): as the sequence (O75608 whole entry I75L/S82A) above, with Q83P, R149H, A150R, S151A counted along it
Acyl-protein thioesterase 1 [L176M], sequence (O75608 whole entry L176M): as the sequence (O75608 whole entry I75L/S82A) above, with L75I, A82S, L176M counted along it
Acyl-protein thioesterase 1, sequence (O75608 whole entry): as the sequence (O75608 whole entry I75L/S82A) above, with L75I, A82S counted along it
Acyl-protein thioesterase 1 [I75L], sequence (O75608 whole entry I75L): as the sequence (O75608 whole entry I75L/S82A) above, with A82S counted along it

A word on the Kd: it is a measure of binding affinity in units of concentration. Turning to `O=C1C=CC2C(=C1)Oc1cc(O)ccc1C2c1cc(C(=O)NCCOCCOCCOCCn2cc(COc3ccc(N4CCN(C(=O)c5cc6c(s5)-c5ccccc5S(=O)(=O)C6)CC4)cc3)nn2)ccc1C(=O)O` (stereo not drawn), the Kd is 770 nM in [1] and 1020 nM in assay [2].

As a reminder, the Ki is a dissociation constant, usually derived from enzyme kinetics or from competition with a known ligand. In the case of `O=C(CN1CCN(C(=O)c2ccco2)CC1)Nc1cc(C(F)(F)F)ccc1Cl` [ML348], the Ki in assay [3] was over 10000 nM; in assay [4], 430 nM; in [5] it was 5800 nM; in assay [6], 6200 nM; in [7], over 10000 nM; in assay [8], over 10000 nM. The figures for the Ki in assay [9] and in [10] were over 10000 nM and 3400 nM, respectively.

In general, IC50 refers to the midpoint of a concentration-inhibition curve. In assay [1], `COc1ccc(N2CCN(C(=O)c3cc4c(s3)-c3ccccc3SC4)CC2)cc1` [ML349-thioether] returned an IC50 of over 100000 nM and a Kd of over 10000 nM. In [2], this compound had an IC50 of over 100000 nM and a Kd of over 10000 nM.

As for `COc1ccc(N2CCN(C(=O)c3cc4c(s3)-c3ccccc3S(=O)(=O)C4)CC2)cc1` [ML349], the IC50 in assay [1] turned out to be 1000 nM; in [2] it was 1100 nM. Besides, the dissociation constant (Kd) came to 160 nM in [1] and 240 nM in [2]. Moreover, the Ki in assay [3] is 130 nM; in assay [4], over 10000 nM; in [5], over 10000 nM; in [11], over 10000 nM; in assay [6] it was over 10000 nM; in assay [7] it was 200 nM. The Ki in [12] is over 10000 nM; in [13], 1200 nM; in assay [14] it was over 10000 nM; in assay [8], 120 nM; in [15], 370 nM; in assay [9], 660 nM. Moreover, the results for the Ki in [16], in [17] and in assay [10] were 180 nM, 280 nM and over 10000 nM, respectively.
